# Assay results: publication PMC10648927, “Examining the activity of cefepime-taniborbactam against Burkholderia cepacia complex and Burkholderia gladioli isolated from cystic fibrosis patients in the United States” (Antimicrobial Agents and Chemotherapy, 2023)
# Biological target: T1, PenA1 β-lactamase (class A carbapenemase) (Burkholderia multivorans, UniProt A0A0H3KN52)
# T1 construct: gene ampC
# Experiment: steady-state β-lactamase inhibition kinetics (Ki app, k2/K, koff)
# Assay type: biochemical
# Conditions: read-out: Taniborbactam
# T1 sequence (A0A0H3KN52 entry or part of it): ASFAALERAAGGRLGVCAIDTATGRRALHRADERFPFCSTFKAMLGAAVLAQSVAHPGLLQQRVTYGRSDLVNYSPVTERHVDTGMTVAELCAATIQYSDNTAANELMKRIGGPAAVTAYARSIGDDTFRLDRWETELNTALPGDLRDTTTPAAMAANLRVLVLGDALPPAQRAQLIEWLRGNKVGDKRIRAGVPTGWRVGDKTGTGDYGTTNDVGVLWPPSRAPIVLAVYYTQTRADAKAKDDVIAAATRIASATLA
structure (smiles),measurement,value
NCCN[C@H]1CC[C@H](CC(=O)N[C@H]2Cc3cccc(C(=O)O)c3OB2O)CC1 [taniborbactam],Ki,400 ± 40 nM
